Measured values from the supplement of paper PMC10627819.

Tests used:
Test in all cases: fitness (endpoint OD595 vs no drug) (fraction); higher = more growth
[1] = system: B. subtilis 168
Summary of the method: (§1)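 Cultures at OD595 0.01 were dispensed into 384-well plates in TSB, LB Lennox or CY and incubated at 37 °C. Every 30 min for 14 h, OD595 was read and corrected by the first reading. Fitness is the optical density at entry into stationary phase relative to the robust mean of no-drug control wells, capped at 1.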

[2] = system: S. aureus Newman
Summary of the method: as §1

[3] = system: S. pneumoniae D39V
Summary of the method: as §1

CC[C@H]1OC(=O)[C@H](C)[C@@H](O[C@H]2C[C@@](C)(OC)[C@@H](O)[C@H](C)O2)[C@H](C)[C@@H](O[C@@H]2O[C@H](C)C[C@H](N(C)C)[C@H]2O)[C@](C)(O)C[C@@H](C)CN(C)[C@H](C)[C@@H](O)[C@]1(C)O [Azithromycin] + O=C(O)[C@H]1/C(=C/CO)O[C@@H]2CC(=O)N21 [Clavulanic acid]
fitness, [1]
Settings	partner 1.5 µg/mL	partner 3 µg/mL	partner 6 µg/mL
first compound 0.25 µg/mL	0.939	0.911	0.793
first compound 0.5 µg/mL	0.805	0.788	0.727

fitness, one replicate
Settings	partner 0.03125 µg/mL	partner 0.0625 µg/mL	partner 0.125 µg/mL	partner 1.5 µg/mL	partner 3 µg/mL	partner 6 µg/mL
[1], first compound 2 µg/mL	–	–	–	0.0793	0.054	0.0121
[2], first compound 0.125 µg/mL	0.962	0.973	0.92	–	–	–
[2], first compound 0.25 µg/mL	0.902	0.998	0.893	–	–	–
[2], first compound 0.5 µg/mL	0.811	0.799	0.834	–	–	–

CC1=C(C(=O)O)N2C(=O)[C@@H](NC(=O)[C@H](N)c3ccccc3)[C@H]2SC1 [Cephalexin] + CO[C@@]12[C@H](COC(N)=O)C3=C(C(=O)C(C)=C(N)C3=O)N1C[C@@H]1N[C@@H]12 [Mitomycin C]
fitness
Settings	first compound 0.25 µg/mL	first compound 0.5 µg/mL	first compound 1 µg/mL	first compound 2 µg/mL	first compound 4 µg/mL
[2], partner 0.0156 µg/mL	0.804	0.761	0.891	–	–
[2], partner 0.0312 µg/mL	0.732	0.724	0.705	–	–
[2], partner 0.0625 µg/mL	0.614	0.577	0.655	–	–
[3], partner 0.001075 µg/mL	–	–	0.662	0.188	0.0487
[3], partner 0.00215 µg/mL	–	–	0.639	0.146	0.0215
[3], partner 0.0043 µg/mL	–	–	0.604	0.173	0.05

fitness, [3], one replicate
Settings	first compound 0.125 µg/mL	first compound 0.25 µg/mL	first compound 0.5 µg/mL
partner 0.002 µg/mL	0.806	0.757	0.732
partner 0.004 µg/mL	0.761	0.723	0.686
partner 0.008 µg/mL	0.607	0.615	0.608

O=C(O)[C@H]1/C(=C/CO)O[C@@H]2CC(=O)N21 [Clavulanic acid] + CC1=C(C(=O)O)N2C(=O)[C@@H](NC(=O)[C@H](N)c3ccccc3)[C@H]2SC1 [Cephalexin]
Settings	fitness
[1], first compound 1.5 µg/mL, partner 0.125 µg/mL	0.904
[1], first compound 1.5 µg/mL, partner 0.25 µg/mL	0.927
[1], first compound 1.5 µg/mL, partner 0.5 µg/mL	0.889
[1], first compound 3 µg/mL, partner 0.125 µg/mL	0.878
[1], first compound 3 µg/mL, partner 0.25 µg/mL	0.818
[1], first compound 3 µg/mL, partner 0.5 µg/mL	0.793
[1], first compound 6 µg/mL, partner 0.125 µg/mL	0.772
[1], first compound 6 µg/mL, partner 0.25 µg/mL	0.76
[1], first compound 6 µg/mL, partner 0.5 µg/mL	0.723
[3], first compound 0.5 µg/mL, partner 2 µg/mL	0.0193
[3], first compound 0.5 µg/mL, partner 4 µg/mL	0.0187
[3], first compound 1 µg/mL, partner 2 µg/mL	0.171
[3], first compound 1 µg/mL, partner 4 µg/mL	0.203
[3], first compound 2 µg/mL, partner 1 µg/mL	0.104
[3], first compound 2 µg/mL, partner 2 µg/mL	0.0309
[3], first compound 2 µg/mL, partner 4 µg/mL	0.045

one replicate
Settings	fitness
[1], first compound 1.5 µg/mL, partner 1 µg/mL	0.929
[1], first compound 3 µg/mL, partner 1 µg/mL	0.848
[1], first compound 6 µg/mL, partner 1 µg/mL	0.867
[2], first compound 0.03125 µg/mL, partner 0.5 µg/mL	≥ 1
[2], first compound 0.03125 µg/mL, partner 1 µg/mL	≥ 1
[2], first compound 0.03125 µg/mL, partner 2 µg/mL	≥ 1
[2], first compound 0.0625 µg/mL, partner 0.5 µg/mL	0.958
[2], first compound 0.0625 µg/mL, partner 1 µg/mL	0.986
[2], first compound 0.0625 µg/mL, partner 2 µg/mL	≥ 1
[2], first compound 0.125 µg/mL, partner 0.5 µg/mL	0.897
[2], first compound 0.125 µg/mL, partner 1 µg/mL	0.913
[2], first compound 0.125 µg/mL, partner 2 µg/mL	0.919
[3], first compound 0.5 µg/mL, partner 0.125 µg/mL	0.945
[3], first compound 0.5 µg/mL, partner 0.25 µg/mL	0.957
[3], first compound 0.5 µg/mL, partner 0.5 µg/mL	0.941
[3], first compound 1 µg/mL, partner 0.125 µg/mL	0.881
[3], first compound 1 µg/mL, partner 0.25 µg/mL	0.903
[3], first compound 1 µg/mL, partner 0.5 µg/mL	0.944
[3], first compound 2 µg/mL, partner 0.125 µg/mL	0.772
[3], first compound 2 µg/mL, partner 0.25 µg/mL	0.789
[3], first compound 2 µg/mL, partner 0.5 µg/mL	0.765

O=C(O)[C@H]1/C(=C/CO)O[C@@H]2CC(=O)N21 [Clavulanic acid] + CC1=C\[C@@H](O)CC(=O)Cc2nc(co2)C(=O)N2CCC=C2C(=O)O[C@H](C(C)C)[C@H](C)/C=C/C(=O)NC\C=C\1 [Virginiamycin M1]
fitness
Settings	first compound 0.5 µg/mL	first compound 1 µg/mL	first compound 1.5 µg/mL	first compound 2 µg/mL	first compound 3 µg/mL	first compound 6 µg/mL
[1], partner 0.0625 µg/mL	–	–	0.935	–	0.877	0.809
[1], partner 0.125 µg/mL	–	–	0.917	–	0.895	0.7
[1], partner 0.25 µg/mL	–	–	0.927	–	0.841	0.822
[3], partner 0.5 µg/mL	0.991	0.935	–	0.918	–	–
[3], partner 1 µg/mL	≥ 1	0.958	–	0.867	–	–
[3], partner 2 µg/mL	0.957	0.904	–	0.796	–	–

fitness, one replicate
Settings	first compound 0.03125 µg/mL	first compound 0.0625 µg/mL	first compound 0.125 µg/mL	first compound 0.5 µg/mL	first compound 1 µg/mL	first compound 2 µg/mL
[2], partner 0.0625 µg/mL	0.925	0.984	0.908	–	–	–
[2], partner 0.125 µg/mL	0.917	0.977	0.949	–	–	–
[2], partner 0.25 µg/mL	0.971	≥ 1	0.975	–	–	–
[3], partner 0.15 µg/mL	–	–	–	≥ 1	0.929	0.868
[3], partner 0.3 µg/mL	–	–	–	0.875	0.87	0.802

O=C(O)[C@H]1/C(=C/CO)O[C@@H]2CC(=O)N21 [Clavulanic acid] + CC(C1CCC(C(O1)OC2C(CC(C(C2O)OC3C(C(C(CO3)(C)O)NC)O)N)N)N)NC [Gentamicin]
main component drawn
Settings	fitness
[1], first compound 1.5 µg/mL, partner 0.0625 µg/mL	0.884
[1], first compound 3 µg/mL, partner 0.0625 µg/mL	0.859
[1], first compound 6 µg/mL, partner 0.0625 µg/mL	0.737
[1], first compound 6 µg/mL, partner 0.25 µg/mL	0.118
[3], first compound 0.5 µg/mL, partner 2 µg/mL	0.96
[3], first compound 0.5 µg/mL, partner 4 µg/mL	0.955
[3], first compound 0.5 µg/mL, partner 8 µg/mL	0.932
[3], first compound 1 µg/mL, partner 2 µg/mL	0.902
[3], first compound 1 µg/mL, partner 4 µg/mL	0.896
[3], first compound 1 µg/mL, partner 8 µg/mL	0.885
[3], first compound 2 µg/mL, partner 2 µg/mL	0.795
[3], first compound 2 µg/mL, partner 4 µg/mL	0.8
[3], first compound 2 µg/mL, partner 8 µg/mL	0.787

fitness, [2], one replicate, main component drawn
Settings	first compound 0.03125 µg/mL	first compound 0.0625 µg/mL	first compound 0.125 µg/mL
partner 1 µg/mL	0.92	0.947	0.872
partner 2 µg/mL	≥ 1	0.893	0.835
partner 4 µg/mL	0.768	0.566	0.388

O=C(O)[C@H]1/C(=C/CO)O[C@@H]2CC(=O)N21 [Clavulanic acid] + CCC[C@@H]1C[C@@H](C(=O)N[C@@H]([C@H]2O[C@H](SC)[C@H](O)[C@@H](O)[C@H]2O)[C@H](C)Cl)N(C)C1 [Clindamycin]
fitness, one replicate
Settings	first compound 0.03125 µg/mL	first compound 0.0625 µg/mL	first compound 0.125 µg/mL	first compound 1.5 µg/mL	first compound 3 µg/mL	first compound 6 µg/mL
[1], partner 0.0039 µg/mL	–	–	–	0.957	0.974	0.931
[1], partner 0.0078 µg/mL	–	–	–	0.842	0.826	0.791
[1], partner 0.0156 µg/mL	–	–	–	0.836	0.763	0.739
[2], partner 0.0312 µg/mL	0.863	0.889	0.785	–	–	–
[2], partner 0.0625 µg/mL	0.544	0.518	0.402	–	–	–
[2], partner 0.125 µg/mL	0.38	0.375	0.282	–	–	–

fitness
Settings	partner 0.0125 µg/mL	partner 0.015 µg/mL	partner 0.025 µg/mL	partner 0.03 µg/mL	partner 0.05 µg/mL	partner 0.06 µg/mL	partner 0.0625 µg/mL	partner 0.125 µg/mL	partner 0.25 µg/mL
[1], first compound 1.5 µg/mL	–	–	–	–	–	–	0.609	0.322	0.308
[1], first compound 3 µg/mL	–	–	–	–	–	–	0.404	0.313	0.26
[1], first compound 6 µg/mL	–	–	–	–	–	–	0.398	0.24	0.217
[3], first compound 0.5 µg/mL	0.779	0.789	0.511	0.516	0.134	0.305	–	–	–
[3], first compound 1 µg/mL	0.749	0.78	0.485	0.567	0.116	0.417	–	–	–
[3], first compound 2 µg/mL	0.683	0.566	0.407	0.399	0.101	0.245	–	–	–
